Where “and” joins values, the source holds several entries; their conditions need not be identical. Equal values may be shown once. Read-outs that look alike come from different tables or passages of the source.
Tests used:
[1] = system: juvenile rainbow trout (Oncorhynchus mykiss); test: Bioconcentration (BCF) experiment based on OECD 305, aqueous exposure to surfactant mixtures; type: in vivo; conditions: for uptake rate constant (kU): 14 d exposure, 28 d depuration; for uptake rate constant (kU) / BCF (kU/kT) / measured total elimination rate constant (kT): whole fish
Protocol: (§1) Juvenile rainbow trout were purchased from EM lax in Västervik, Sweden, and held in the aquaria facility for one month prior to starting the experiment on August 28, 2018. Ethical approval for the experiments was obtained from Stockholm’s djurförsöksetiska nämnd (decision 9967–2017). The experiment was conducted in six 350 L fiberglass aquaria with a water renewal rate of 1.5 L min^–1 corresponding to a turnover time of […]. The water temperature and the air temperature in the aquaria room were 10 °C. The lighting was dim and programmed on a 12 h light/12 h dark cycle.
(§2) Three BCF experiments were conducted, one each for MIX1 and MIX2 at pH ∼7.6 (denoted MIX1 and MIX2 in the following), and one for MIX1 at pH ∼6.2 (MIX1pH). Each experiment consisted of a 14 d exposure phase and a 28 d depuration phase. There were also two control aquaria where unexposed fish were kept, one at pH 7.6 and one at pH 6.2. For the pH 6.2 aquaria, a 20% v:v formic acid solution was pumped into a premixing basin where it was mixed with the inflowing water before entering the aquarium. pH sensors monitored pH in the premixing basin and the aquarium. The pH for the MIX1 and MIX2 experiments was governed by the pH of the water supply. Water samples were collected at 8 time points during each experiment for the determination of pH and alkalinity. Water samples were collected daily during the exposure phase for determination of total organic carbon (TOC), which was measured with NDIR detection after acidification, purging and high-temperature catalytic combustion (Shimadzu TOC-L).
(§3) For the exposure phase, a methanol solution of the test chemical mixture was infused continuously at 4.0 μL min^–1 into the water inflow of the aquarium using a syringe pump. The target concentrations of the chemicals in water ranged from 2.5 to 100 μg L^–1 (Table 1). They were selected to be as low as possible to minimize the risk of toxic effects while still being high enough to enable collection of high-quality data, building on the results of the tissue distribution experiment.[32] The syringe pump was started in an aquarium containing no fish. After 16 h to allow the concentrations to stabilize, ∼80 rainbow trout were transferred to the aquarium. Over the following 14 d water samples were collected and fish were sacrificed according to the schedule in Table S5. The remaining fish were then transferred to a second aquarium that received water without chemical addition. Over the following 28 d further water samples were collected and fish were sacrificed (Table S5).
(§4) At each fish sampling, 4–6 fish were sacrificed. Fish were also sampled periodically from the control aquaria. Following stunning and severance of the spinal cord, the fish were placed in a polyethylene bag, weighed, and immediately frozen at −20 °C. The median fish weight at sacrifice was 10.94 g, with a 25th and 75th percentile of 8.43 and 13.58 g, respectively.
(§5) Three fish from each time point were prioritized for analysis based on proximity to the median fish weight. Each fish was semithawed, cut into 3–4 pieces, and homogenized with an Ultra-Turrax device. 150 mg of the homogenate was transferred to a preweighed 13 mL polypropylene tube, centrifuged to a pellet, and weighed. 50 μL of methanol was added and the prepared aliquot was frozen. For extraction internal standard solution (isotope labeled standards of Q10 (D21), Q14 (D29), and P16 (D33)), 3 mL of methanol and 3 steel balls (3.2 mm diameter) were added to the prepared aliquot. This mixture was mixed in a bullet blender for 1 min, and then placed in an ultrasound bath at 50 °C for 60 min. Following centrifugation, the supernatant was decanted and the extraction was repeated. The extracts were combined and a portion corresponding to 25–50 mg homogenate was cleaned up on a weak cationic exchange SPE column (WCX, 60 mg) as described elsewhere.[32] […]

gills of rainbow trout = test: Mechanistic one-box mass balance model of gill uptake and elimination; conditions: for predicted gill elimination rate constant eq 1 (k2): from measured kU and modeled αW, αB, DFW
Source text: To gain more mechanistic insight into the results, we formulated a simple one-box mass balance model of chemical bioconcentration in fish that considered diffusive uptake and elimination across the gills as well as biotransformation.[33] The flow of water across the gills and the flow of blood through the gills were modeled as perfusion limited resistances that constrain gill uptake and elimination. […] Consequently, these resistances are unknowns. Ion trapping effects caused by differences in pH between water at the gill surface and blood in the gills are considered, drawing on previous work on the uptake and elimination of ionizable organic chemicals across the gills of rainbow trout.[22],[23] Partitioning of the chemical from the dissolved phase into blood and into whole fish was calculated as the product of the membrane lipid–water distribution ratio (DMLW,T, including partitioning of both the neutral and the charged forms) and the fraction of membrane lipid in blood and whole fish. A detailed description of the model is provided in the SI (Text S3).
The contribution of the water perfusion and blood perfusion resistances were compared with the overall resistance for transport across the gills from water to blood (RW→B), which was calculated from the measured kU according to equation S4.3. […] For all of the other chemicals the blood resistance is insignificant compared to the overall resistance.
The rate constant for elimination across the gills, k2, can be defined as follows: [drawing 1] 1 where αB and αW are the neutral fractions of the chemical in the blood and in the water at the gill surface, respectively, and DFW is the fish-water distribution ratio of the chemical at the pH of blood (8.1) (see Text S3). Using the measured kU and the values of αW, αB, and DFW estimated for the model, k2 was calculated (Table 2).

rainbow trout [2] = test: Semiquantitative screening of demethylation metabolites in exposed fish; type: in vivo; conditions: last time point of the exposure phase
Protocol: Semiquantitative screening of possible demethylation metabolites was conducted in the fish collected at the last time point of the exposure phase. […] Demethylation of T10 to form S10 was reported in an in vitro S9 assay, and it was proposed that this is an important elimination mechanism for tertiary amines in fish.[27] There is in vitro evidence that demethylation of secondary alkylamines also occurs, which will be reported elsewhere.[37]

[3] = parameters: method as in Perrin 1965, SRC, REACH, Perrin 1972, Hall 1957; conditions: selected per amine type, weighted from simulated and experimental analogue data; ref Perrin 1965, SRC, REACH, Perrin 1972, Hall 1957; cited from earlier work
[4] = ref Timmer and Droge (2017); cited from earlier work
[5] = Bioconcentration (BCF) experiment based on OECD 305, aqueous exposure to surfactant mixtures; type: in vivo, Oncorhynchus mykiss; conditions: whole fish, read-out: measured total elimination rate constant (kT) (converted)
Protocol: as §1, §2, §3, §4, §5

[6] = Membrane-water partition coefficient of the charged form (DMLW,C); type: physicochemical; conditions: extrapolated from Timmer and Droge (2017)
Protocol: Table S3: Test chemical properties
Abbr. pKa$ Log DOC§ Log DMLW,C# SMILES
$ pKa values derived/reported for different alkylamine type analogues. The selected value is expected to be independent of chain length for all longer chain homologues, using a weighted value obtained from the different sources with more focus on experimental data:
Algorithm / simulated data Experimental reference data (25 °C)
Chem ACD/ COSMO- selected
(https://echa.europa.eu/registration-dossier/-

rainbow trout [7] = system: rainbow trout; parameters: method as in PMID 32062967; conditions: after the 7 d exposure; cited from earlier work

Structure (SMILES)	uptake rate constant (kU) ([1]; pH 7.6 (MIX1, MIX2), 10 °C)	BCF (kU/kT) ([1]; pH 7.6 (MIX1, MIX2))	measured total elimination rate constant (kT) ([1]; pH 7.6 (MIX1, MIX2))	k2/kT (gills of rainbow trout; pH 7.6 (MIX1, MIX2))	predicted gill elimination rate constant eq 1 (k2) (gills of rainbow trout; pH 7.6 (MIX1, MIX2))	demethylation metabolites observed in fish (rainbow trout [2])	pKa used (selected value) [3]	Log DMLW,C (membrane-water partition coefficient of the charged form) [4]	k el ([5]; pH 7.6 (MIX1, MIX2))	Log DMLW,C (membrane-water partition coefficient of the charged form) [6]	factor by which BCF is lower at pH 6.2 than at pH 7.6 ([1]; MIX1 vs MIX1pH)	factor by which kT is greater at pH 6.2 than at pH 7.6 ([1]; MIX1 vs MIX1pH)	uptake rate constant (kU) ([1]; pH 6.2 (MIX1pH))	BCF (kU/kT) ([1]; pH 6.2 (MIX1pH))	k2/kT (gills of rainbow trout; pH 6.2 (MIX1pH))	predicted gill elimination rate constant eq 1 (k2) (gills of rainbow trout; pH 6.2 (MIX1pH))	modeled water resistance as share of the measured uptake resistance (gills of rainbow trout; pH 7.6)	fraction in gills and skin/mucus (rainbow trout [7])	also measured
CCCCCCCCCN(C)C [T9, N,N-dimethylnonylamine]	2.0 L kg^–1 h^–1	35 L kg^–1	0.059 h^–1	4.6	0.27 h^–1	trace levels of the corresponding primary amines	C13N(CH3)2 (10.0)	3.07	–	–	–	–	–	–	–	–	–	–	factor by which k2 exceeded kT (gills of rainbow trout; pH 7.6): ~5
CCCCCCCCCCCCCN [P13, Tridecylamine]	4.8 L kg^–1 h^–1	1390 L kg^–1	–	0.17	0.0006 h^–1	–	C13NH2 (10.6)	–	9.44e-07 s⁻¹	6.16	–	–	–	–	–	–	–	–	factor by which k2 was less than kT (gills of rainbow trout): ~10
CCCCCCCCCCCCCN(C)C [T13, N,N-dimethyltridecylamine]	15.9 L kg^–1 h^–1	3200 L kg^–1	0.0049 h^–1	1.9	0.010 h^–1	trace levels of the corresponding primary amines	C13N(CH3)2 (10.0)	–	–	5.88	9.5	3 and 2.8	4.7 L kg^–1 h^–1	340 L kg^–1	2.8	0.039 h^–1	exceeds 50%	–	measured total elimination rate constant (kT) ([1]; pH 6.2 (MIX1pH)): 0.0139 h^–1; BCF compared with REACH B (2000) and vB (5000) thresholds ([1]; pH 7.6): greater than 2000 L kg ww^–1
CCCCCCCCCCCCCCCCN [P16, Hexadecylamine]	15.3 L kg^–1 h^–1	6100 L kg^–1	–	0.01	0.00003 h^–1	–	C16NH2 (10.6)	–	6.94e-07 s⁻¹	7.90	2	no pH dependency for kT	7.8 L kg^–1 h^–1	3000 L kg^–1	0.09	0.00023 h^–1	exceeds 50%	73%	k el ([5]; pH 6.2 (MIX1pH)): 7.22e-07 s⁻¹; factor by which kU is lower at pH 6.2 than at pH 7.6 ([1]; MIX1 vs MIX1pH): 2; pH dependency of k2 (factor between pH 7.6 and pH 6.2) (gills of rainbow trout; MIX1 vs MIX1pH): 7
CCCCCCCCCCCCNC [S12, N-methyldodecylamine]	5.5 L kg^–1 h^–1	840 L kg^–1	0.0066 h^–1	0.6	0.004 h^–1	P12, a metabolite of S12, was also observed	C12N(CH3)H (10.8)	5.39	–	–	–	–	–	–	–	–	–	–	–
CCCCCCCCCCCCCCCCNC [S16, N-methylhexadecylamine]	22 L kg^–1 h^–1	8200 L kg^–1	0.0027 h^–1	0.03	0.00007 h^–1	P16 was not detected	C16N(CH3)H (10.8)	–	–	7.71	–	–	–	–	–	–	–	71%	–

Reference: publication PMC8277129, “Bioconcentration of Several Series of Cationic Surfactants in Rainbow Trout” (Environmental Science & Technology, 2021)
